Reference: patent US12622910B2, “Inhibitors of Bruton's tyrosine kinase and methods of their use” (Janssen Pharmaceutica NV, priority 2021, dated 2026)
Where two headings read alike, the source gives them in different places. Marks after values point to notes of the source that are not given here.

Assay: Phase 1 first-in-human study, plasma pharmacokinetics
Format: in vivo
Conditions: for half-life / Tmax / AUC(0-inf) / Cmax / AUC(0-t): male, human, plasma, po
Experimental: Safety, tolerability, PK, and BTKO were assessed for six doses of compound of Formula (III) oral solution (4, 12, 36, 100, 200, 400 mg) in participants under fasted conditions. The SAD part comprised 10 cohorts of 8 participants each (FIG. 1). In each cohort receiving compound of Formula (III) oral solution (Cohorts 1-9), 6 participants were randomized to receive compound of Formula (III) and 2 to receive placebo. All participants in Cohort 10 received compound of Formula (III) as an oral capsule. All 10 cohorts included 2 sentinel participants who were dosed ˜24 hours prior to the rest of the cohort. In cohorts receiving compound of Formula (III) oral solution, 1 sentinel participant received compound of Formula (III) and the other received placebo.
Six male escalating dose cohorts received a single oral dose of 4, 12, 36, 100, 200, 400 mg compound of Formula (III) or placebo solution under fasted conditions. Gender effects were assessed in 2 female cohorts whose participants received either a 36 or 100 mg dose of compound of Formula (III) or placebo as an oral solution under fasted conditions. Food effects were evaluated in a male cohort receiving compound of Formula (III) 100 mg or placebo as an oral solution after a high-fat breakfast.
Safety, tolerability, and PK of a solid dose formulation of compound of Formula (III) were assessed in an additional male cohort (Cohort 10) that received 3×35 mg (105 mg) of compound of Formula (III) in the fasted state. Since all the participants received the same dose of compound of Formula (III), this cohort was not blinded.
Safety, tolerability, PK, and BTKO following multiple compound of Formula (III) doses were evaluated in 3 dose escalation cohorts with a total of 18 participants (males: 9, females: 9) receiving active study drug. In each cohort, 3 males and 3 females were randomized to receive 36 mg once-daily (QD), 100 mg QD, or 200 mg QD compound of Formula (III) oral solution and 3 participants (males: 2; female: 1) to receive placebo. Two male participants in each cohort served as sentinel participants: one received compound of Formula (III) and other received placebo ˜48 hours prior to other participants in the cohort. All safety and tolerability data (through the follow-up visit), PK data (through at least 24 hours after last dose administration), and all available PD data were reviewed from each cohort before a decision was made to dose escalate.
Sample collection—For the PK assessment of compound of Formula (III), venous blood samples (2 to 4 mL each) were collected predose and at 15 min, 0.5, 1, 1.5, 2, 2.5, 3, 4, 6, 8, 12, 24, 36, 48, and 72 hours post-dose in Part 1. In Part 2, samples were collected predose and at 15 min, 0.5, 1, 1.5, 2, 2.5, 3, 4, 6, 8, 12 hours post-dose on day 1, predose and 1 hour post-dose on days 2-9, and predose and at 15 min, 0.5, 1, 1.5, 2, 2.5, 3, 4, 6, 8, 12, 24, 48, and 72 hours after the last dose on day 10. Plasma samples were analyzed to determine concentrations of compound of Formula (III) using a scientific validated, specific, and sensitive liquid chromatography-mass spectrometry (LC-MS/MS) method.
The PK analysis for the compound of Formula (III) samples was performed using a non-compartmental method with validated Phoenix® WinNonlin® (version 8.0, Certara L.P.).

[1] = 36 mg, single 36 mg oral solution, male fasted
[2] = 100 mg, single 100 mg oral solution, male fasted
[3] = 100 mg, single 100 mg oral solution, male fed (high-fat breakfast)
[4] = 105 mg, single 105 mg (3 × 35 mg) oral capsule, male fasted
[5] = 200 mg, single 200 mg oral solution, male fasted
[6] = 400 mg, single 400 mg oral solution, male fasted
[7] = single 12 mg oral solution, male fasted
[8] = single 100 mg oral solution, female fasted

Work on `C=CC(=O)N[C@H]1CCC[C@H]1NC(=O)c1sc2nccc3c2c1NC(=O)N3c1cnc(CC(C)C)cc1C` (atropisomer, axis not shown) [compound of Formula (III), N-((1R,2S)-2-Acrylamidocyclopentyl)-5-(S)-(6-isobutyl-4-methylpyridin-3-yl)-4-oxo-4,5-dihydro-3H-1-thia-3,5,8-triazaacenaphthylene-2-carboxamide] yielded a half-life (12 mg, single 12 mg oral solution, male fasted, read-out: t1/2, λz (converted)) of 96 min, a Tmax (12 mg, single 12 mg oral solution, male fasted, read-out: tmax, median (min-max)) of 1 h and an AUC(0-inf) [1] of 644 ng·h/mL. The Cmax [1] was 200 ng/mL, the AUC(0-t) (36 mg, single 36 mg oral solution, male fasted, read-out: AUC0-24 h) was 649 ng·h/mL and the AUC(0-t) (36 mg, single 36 mg oral solution, male fasted, read-out: AUClast) was 649 ng·h/mL. The half-life (36 mg, single 36 mg oral solution, male fasted, read-out: t1/2, dom (converted)) was 96 min, the half-life (36 mg, single 36 mg oral solution, male fasted, read-out: t1/2, λz (converted)) was 126 min and the Tmax (36 mg, single 36 mg oral solution, male fasted, read-out: tmax, median (min-max)) was 1 h. It also gave an AUC(0-inf) [2] of 20.6 ng·h/mL, a Cmax [2] of 923 ng/mL and an AUC(0-t) (100 mg, single 100 mg oral solution, male fasted, read-out: AUC0-24 h) of 2140 ng·h/mL. The AUC(0-t) (100 mg, single 100 mg oral solution, male fasted, read-out: AUClast) was 2140 ng·h/mL, the half-life (100 mg, single 100 mg oral solution, male fasted, read-out: t1/2, dom (converted)) was 114 min and the half-life (100 mg, single 100 mg oral solution, male fasted, read-out: t1/2, λz (converted)) was 300 min. The Tmax (100 mg, single 100 mg oral solution, male fasted, read-out: tmax, median (min-max)) was 0.5 h, the AUC(0-inf) [3] was 1760 ng·h/mL and the Cmax [3] was 277 ng/mL. For the same compound, the AUC(0-t) (100 mg, single 100 mg oral solution, male fed (high-fat breakfast), read-out: AUC0-24 h) was 1720 ng·h/mL, the AUC(0-t) (100 mg, single 100 mg oral solution, male fed (high-fat breakfast), read-out: AUClast) was 1750 ng·h/mL and the half-life (100 mg, single 100 mg oral solution, male fed (high-fat breakfast), read-out: t1/2, dom (converted)) was 120 min. For the same compound, the half-life (100 mg, single 100 mg oral solution, male fed (high-fat breakfast), read-out: t1/2, λz (converted)) was 648 min, the Tmax (100 mg, single 100 mg oral solution, male fed (high-fat breakfast), read-out: tmax, median (min-max)) was 2.5 h and the AUC(0-inf) [4] was 1500 ng·h/mL. The Cmax [4] was 345 ng/mL, the AUC(0-t) (105 mg, single 105 mg (3 × 35 mg) oral capsule, male fasted, read-out: AUC0-24 h) was 1320 ng·h/mL and the AUC(0-t) (105 mg, single 105 mg (3 × 35 mg) oral capsule, male fasted, read-out: AUClast) was 1450 ng·h/mL. It also gave a half-life (105 mg, single 105 mg (3 × 35 mg) oral capsule, male fasted, read-out: t1/2, dom (converted)) of 114 min, a half-life (105 mg, single 105 mg (3 × 35 mg) oral capsule, male fasted, read-out: t1/2, λz (converted)) of 852 min and a Tmax (105 mg, single 105 mg (3 × 35 mg) oral capsule, male fasted, read-out: tmax, median (min-max)) of 1.5 h. For the same compound, the AUC(0-inf) [5] was 2780 ng·h/mL, the Cmax [5] was 1210 ng/mL and the AUC(0-t) (200 mg, single 200 mg oral solution, male fasted, read-out: AUC0-24 h) was 2750 ng·h/mL. For the same compound, the AUC(0-t) (200 mg, single 200 mg oral solution, male fasted, read-out: AUClast) was 277 ng·h/mL, the half-life (200 mg, single 200 mg oral solution, male fasted, read-out: t1/2, dom (converted)) was 108 min and the half-life (200 mg, single 200 mg oral solution, male fasted, read-out: t1/2, λz (converted)) was 772 min. It also gave a Tmax (200 mg, single 200 mg oral solution, male fasted, read-out: tmax, median (min-max)) of 1 h, an AUC(0-inf) [6] of 4200 ng·h/mL and a Cmax [6] of 1920 ng/mL. For the same compound, the AUC(0-t) (400 mg, single 400 mg oral solution, male fasted, read-out: AUC0-24 h) was 3700 ng·h/mL, the AUC(0-t) (400 mg, single 400 mg oral solution, male fasted, read-out: AUClast) was 3830 ng·h/mL and the half-life (400 mg, single 400 mg oral solution, male fasted, read-out: t1/2, dom (converted)) was 132 min. It also gave a half-life (400 mg, single 400 mg oral solution, male fasted, read-out: t1/2, λz (converted)) of 792 min, a Tmax (400 mg, single 400 mg oral solution, male fasted, read-out: tmax, median (min-max)) of 0.75 h and a half-life (single 4 to 400 mg oral solution, male fasted, read-out: mean t1/2, dom across doses) of 90 to 132 min. For the same compound, the half-life (single 4 to 400 mg oral solution, male fasted, read-out: mean t1/2, λz across doses) was 96 to 792 min, the Tmax (single 4 to 400 mg oral solution, male fasted, read-out: median tmax across doses) was 0.5 to 1 h and the “AUC∞/Dose” value (single 4 mg oral solution, male fasted) was 38.9 (12.5) h · ng/mL/mg. The “AUC∞/Dose” value [7] was 26.4 (9.07) h · ng/mL/mg, the Cmax/Dose [7] was 7.33 ng/mL and the “mean Cmax and AUCs, females higher than males by” value (single 36 mg fasted) was 17-27%. For the same compound, the “AUC∞/Dose” value (single 36 mg oral solution, female fasted) was 1.9 (0.5) h · ng/mL/mg, the “AUC∞/Dose” value (single 36 mg oral solution, male fasted) was 17.9 (6.64) h · ng/mL/mg and the “mean Cmax and AUCs, females lower than males by” value (single 100 mg fasted) was 30-35%. The “AUC∞/Dose” value [8] was 13.4 (4.60) h · ng/mL/mg, the “t1/2, λz” value [8] was 11.67 (7.8)^c h and the “AUC∞/Dose” value (single 100 mg oral solution, male fasted) was 20.6 (7.60) h · ng/mL/mg. The “AUC∞/Dose” value (single 100 mg oral solution, male fed (high-fat breakfast)) was 17.6 (4.20) h · ng/mL/mg, the “Cmax lowered by high-fat meal” value (single 100 mg, fed vs fasted) was “approximately 70%” and the “AUC∞/Dose” value (single 105 mg (3 × 35 mg) oral capsule, male fasted) was 14.3 (7.59) h · ng/mL/mg. The “AUC∞/Dose” value (single 200 mg oral solution, male fasted) was 13.9 (3.80) h · ng/mL/mg and the “AUC∞/Dose” value (single 400 mg oral solution, male fasted) was 9.11 (4.68) h · ng/mL/mg.
